# Data reported in ChEMBL document CHEMBL1129417, “Glucose transport-enhancing and hypoglycemic activity of 2-methyl-2-phenoxy-3-phenylpropanoic acids” (1996).
# How the values were obtained:
# 3T3-L1 [1] = assay: compound was evaluated for their acute effects in vitro by measuring 2-Deoxyglucose (2DG) uptake in vehicle treated 3T3-L1 adipocytes at concentration of 10 micro M; assay type: functional
# 3T3-L1 [2] = assay: Acute effects in vitro by measuring 2-deoxyglucose (2DG) uptake in vehicle treated 3T3-L1 adipocytes at 30 uM dose.; assay type: functional
# Mus musculus [3] = assay: In vivo hypoglycemic activity expressed as glucose lowering relative to positive control in 6-8 week old C57BL/6J ob/ob mouse at 5 mg/kg.; assay type: functional
# Mus musculus [4] = assay: compound was tested in vivo for hypoglycemic activity expressed as Glucose lowering relative to positive control in 6-8 week old C57BL/6J ob/ob mouse at 0.5 mg/kg; assay type: functional
# 3T3-L1 [5] = assay: In vitro measurements of 2-Deoxyglucose (2DG) uptake in vehicle treated 3T3-L1 adipocytes at 60 uM dose.; assay type: functional
# 3T3-L1 [6] = assay: compound was evaluated for their acute effects in vitro by measuring 2-Deoxyglucose (2DG) uptake in vehicle treated 3T3-L1 adipocytes at concentration of 3 micro M; assay type: functional
# 3T3-L1 [7] = assay: compound was evaluated for their acute effects in vitro by measuring 2-Deoxyglucose (2DG) uptake in vehicle treated 3T3-L1 adipocytes at concentration of 30 micro M; assay type: functional
# Mus musculus [8] = assay: In vivo hypoglycemic activity expressed as glucose lowering relative to positive control in 6-8 week old C57BL/6J ob/ob mouse at 1 mg/kg.; assay type: functional
# Mus musculus [9] = assay: In vivo hypoglycemic activity expressed as glucose lowering relative to positive control in 6-8 week old C57BL/6J ob/ob mouse at 10 mg/kg; assay type: functional
# Rattus norvegicus [10] = species on record: Rattus norvegicus; assay: Inhibition of gluconeogenesis in rat; assay type: functional
# Mus musculus [11] = assay: compound was tested in vivo for hypoglycemic activity expressed as Glucose lowering relative to positive control in 6-8 week old C57BL/6J ob/ob mouse at 0.1 mg/kg; assay type: functional
# 3T3-L1 [12] = assay: compound was evaluated for their acute effects in vitro by measuring 2-Deoxyglucose (2DG) uptake in vehicle treated 3T3-L1 adipocytes at 3 uM dose.; assay type: functional
# 3T3-L1 [13] = assay: compound was evaluated for their acute effects in vitro by measuring 2-Deoxyglucose (2DG) uptake in vehicle treated 3T3-L1 adipocytes at 1 uM dose.; assay type: functional
# 3T3-L1 [14] = assay: Acute effects in vitro by measuring 2-deoxyglucose (2DG) uptake in vehicle treated 3T3-L1 adipocytes at 10 uM dose.; assay type: functional
# Mus musculus [15] = assay: compound was tested in vivo for hypoglycemic activity in 6-8 week old C57BL/6J ob/ob mouse at 10 mg/kg; assay type: functional
# Rattus norvegicus [16] = species on record: Rattus norvegicus; assay: Compound was tested for inhibition of gluconeogenesis; assay type: functional; details: Rattus norvegicus; read-out: ED50
# 3T3-L1 [17] = assay: compound was evaluated for their acute effects in vitro by measuring 2-Deoxyglucose (2DG) uptake in vehicle treated 3T3-L1 adipocytes at 10 uM dose.; assay type: functional
# 3T3-L1 [18] = assay: compound was evaluated for their acute effects in vitro by measuring 2-Deoxyglucose (2DG) uptake in vehicle treated 3T3-L1 adipocytes at 30 uM dose.; assay type: functional
# 3T3-L1 [19] = assay: In vitro by measurements of 2-Deoxyglucose (2DG) uptake in vehicle treated 3T3-L1 adipocytes at 3 uM dose.; assay type: functional
# Mus musculus [20] = assay: compound was tested in vivo for hypoglycemic activity in 6-8 week old C57BL/6J ob/ob mouse at 25 mg/kg; assay type: functional
# Mus musculus [21] = assay: compound was tested in vivo for hypoglycemic activity in 6-8 week old C57BL/6J ob/ob mouse at 50 mg/kg; assay type: functional
# Rattus norvegicus [22] = species on record: Rattus norvegicus; assay: Percentage inhibition of Glucagon stimulated Gluconeogenesis in Isolated Rat Hepatocytes in vitro; assay type: functional, Hepatocyte
# Rattus norvegicus [23] = species on record: Rattus norvegicus; assay: Percentage inhibition of basal stimulated Gluconeogenesis in Isolated Rat Hepatocytes in vitro; assay type: functional, Hepatocyte
# 3T3-L1 [24] = assay: compound was evaluated for their acute effects in vitro by measuring 2-Deoxyglucose (2DG) uptake in vehicle treated 3T3-L1 adipocytes at 100 uM dose.; assay type: functional
# L6 = assay: compound was evaluated for their acute effects in vitro by measuring 2-Deoxyglucose (2DG) uptake in vehicle treated L6 […] at 60 uM dose.; assay type: functional
# Mus musculus [25] = assay: compound was tested in vivo for hypoglycemic activity expressed as Glucose lowering relative to positive control in 6-8 week old C57BL/6J ob/ob mouse at 25 mg/kg; assay type: functional
# Mus musculus [26] = assay: compound was tested in vivo for hypoglycemic activity expressed as Glucose lowering relative to positive control in 6-8 week old C57BL/6J ob/ob mouse at 2.5 mg/kg; assay type: functional
# 3T3-L1 [27] = assay: In vitro measurements 2-Deoxyglucose (2DG) uptake in vehicle treated 3T3-L1 adipocytes at 100 uM dose.; assay type: functional
# [28] = Rattus norvegicus, read-out: ED50
smiles,measurement,setting,value
CCCc1ccc(CC(C)(Oc2ccc(C(C)C)cc2)C(=O)[O-])cc1.[Na+] (stereo unspecified),Basal uptake,3T3-L1 [1],100%
same,Basal uptake,3T3-L1 [2],97%
same,Hypoglycemic activity,Mus musculus [3],134%
same,Hypoglycemic activity,Mus musculus [4],69%
same,Basal uptake,3T3-L1 [5],282%
same,Basal uptake,3T3-L1 [6],103%
same,Basal uptake,3T3-L1 [7],233%
same,Hypoglycemic activity,Mus musculus [8],70%
same,Hypoglycemic activity,Mus musculus [9],113%
same,ED50,Rattus norvegicus [10]; [28],0.5 mg/kg
CCc1cccc(CC(C)(Oc2ccc(Cc3ccccc3)cc2)C(=O)[O-])c1.[Na+] (stereo unspecified),Basal uptake,3T3-L1 [1],179%
same,Hypoglycemic activity,Mus musculus [3],102%
same,Hypoglycemic activity,Mus musculus [4],52%
same,Basal uptake,3T3-L1 [6],128%
same,Basal uptake,3T3-L1 [7],265%
same,Hypoglycemic activity,Mus musculus [8],87%
same,Hypoglycemic activity,Mus musculus [11],73%
same,Hypoglycemic activity,Mus musculus [9],101%
same,ED50,Rattus norvegicus [10]; [28],0.1 mg/kg
CC(C)c1ccc(OC(C)(Cc2ccccc2)C(=O)[O-])cc1.[Na+] (stereo unspecified),Basal uptake,3T3-L1 [12],162%
same,Basal uptake,3T3-L1 [13],100%
same,Hypoglycemic activity,Mus musculus [9],3%
same,ED50,Rattus norvegicus [10]; [28],> 10 mg/kg
same,Basal uptake,3T3-L1 [14],126%
CC(C)c1ccc(OC(C)(C[N-]SC(F)(F)F)Cc2ccc(Cl)cc2)cc1.[Na+] (stereo unspecified),Basal uptake,3T3-L1 [12],127%
same,Hypoglycemic activity,Mus musculus [15],<0%
same,ED50,Rattus norvegicus [16],> 10 mg/kg
same,Basal uptake,3T3-L1 [17],132%
same,Basal uptake,3T3-L1 [18],159%
CCc1ccc(CC(C)(Oc2ccc(C(=O)c3ccccc3)cc2)C(=O)O)cc1 (stereo unspecified),Hypoglycemic activity,Mus musculus [3],108%
same,Hypoglycemic activity,Mus musculus [4],60%
same,Hypoglycemic activity,Mus musculus [8],65%
same,Hypoglycemic activity,Mus musculus [9],107%
same,ED50,Rattus norvegicus [10]; [28],0.5 mg/kg
CC(Cc1ccc2c(c1)CCC2)(Oc1ccc(Cc2ccccc2)cc1)C(=O)[O-].[Na+] (stereo unspecified),Hypoglycemic activity,Mus musculus [3],102%
same,Hypoglycemic activity,Mus musculus [4],50%
same,Hypoglycemic activity,Mus musculus [8],78%
same,Hypoglycemic activity,Mus musculus [9],120%
same,ED50,Rattus norvegicus [10]; [28],0.5 mg/kg
CC(C)c1ccc(OC(C)(Cc2cccc(-c3ccccc3)c2)C(=O)[O-])cc1.[Na+] (stereo unspecified),Basal uptake,3T3-L1 [1],118%
same,Hypoglycemic activity,Mus musculus [3],110%
same,Hypoglycemic activity,Mus musculus [4],46%
same,Basal uptake,3T3-L1 [19],87%
same,Basal uptake,3T3-L1 [6],109%
same,Basal uptake,3T3-L1 [7],193%
same,Hypoglycemic activity,Mus musculus [8],78%
same,Hypoglycemic activity,Mus musculus [9],83%
same,ED50,Rattus norvegicus [10]; [28],0.5 mg/kg
same,Basal uptake,3T3-L1 [14],76%
same,Basal uptake,3T3-L1 [18],118%
C1CCC(NC2CCCCC2)CC1.CC(C)c1ccc(OC(Cc2cccc(F)c2)C(=O)O)cc1 (stereo unspecified),Hypoglycemic activity,Mus musculus [20],65%
same,Hypoglycemic activity,Mus musculus [21],100%
same,Inhibition,Rattus norvegicus [22],3%
same,ED50,Rattus norvegicus [16],< 25 mg/kg
same,Inhibition,Rattus norvegicus [23],38%
same,Basal uptake,3T3-L1 [24],111%
C1CCC(NC2CCCCC2)CC1.CC(C)c1ccc(OC(Cc2cccc(C(F)(F)F)c2)C(=O)O)cc1 (stereo unspecified),Hypoglycemic activity,Mus musculus [20],64%
same,Hypoglycemic activity,Mus musculus [21],76%
same,Hypoglycemic activity,Mus musculus [15],<0%
same,ED50,Rattus norvegicus [16],25 mg/kg
same,Basal uptake,3T3-L1 [24],284%
C1CCC(NC2CCCCC2)CC1.CC(C)c1ccc(OC(Cc2ccc(Cl)c(Cl)c2)C(=O)O)cc1 (stereo unspecified),Hypoglycemic activity,Mus musculus [21],65%
same,ED50,Rattus norvegicus [16],< 50 mg/kg
same,Basal uptake,3T3-L1 [24],225%
C1CCC(NC2CCCCC2)CC1.CC(C)c1ccc(OC(Cc2cccc(Cl)c2)C(=O)O)cc1 (stereo unspecified),Hypoglycemic activity,Mus musculus [21],32%
same,ED50,Rattus norvegicus [16],> 50 mg/kg
same,Basal uptake,3T3-L1 [24],160%
C1CCC(NC2CCCCC2)CC1.CC(C)c1ccc(OC(Cc2ccccc2C(F)(F)F)C(=O)O)cc1 (stereo unspecified),Hypoglycemic activity,Mus musculus [21],<0%
same,ED50,Rattus norvegicus [16],> 50 mg/kg
same,Basal uptake,3T3-L1 [24],191%
C1CCC(NC2CCCCC2)CC1.CC(C)c1ccc(OC(CCc2ccc(Cl)cc2)C(=O)O)cc1 (stereo unspecified),Hypoglycemic activity,Mus musculus [20],64%
same,Basal uptake,L6,89%
same,ED50,Rattus norvegicus [16],< 25 mg/kg
same,Basal uptake,3T3-L1 [24],89%
CC(C)c1ccc(OC(C)(Cc2ccc(-c3ccccc3)cc2)C(=O)[O-])cc1.[Na+] (stereo unspecified),Basal uptake,3T3-L1 [2],126%
same,Hypoglycemic activity,Mus musculus [3],93%
same,Hypoglycemic activity,Mus musculus [4],21%
same,Basal uptake,3T3-L1 [19],122%
same,Hypoglycemic activity,Mus musculus [8],58%
same,Hypoglycemic activity,Mus musculus [9],116%
same,ED50,Rattus norvegicus [10]; [28],1 mg/kg
same,Basal uptake,3T3-L1 [14],129%
Cc1ccc(OC(Cc2ccc(Cl)cc2)C(=O)O)cc1 (stereo unspecified),Basal uptake,3T3-L1 [2],88%
same,Basal uptake,L6,93%
same,Basal uptake,3T3-L1 [5],<100%
same,ED50,Rattus norvegicus [10]; [28],> 25 mg/kg
same,Basal uptake,3T3-L1 [14],82%
same,Hypoglycemic activity,Mus musculus [25],33%
CC(C)c1ccc(CC(C)(Oc2ccc(C(C)C)cc2)C(=O)[O-])cc1.[Na+] (stereo unspecified),Basal uptake,3T3-L1 [2],93%
same,Basal uptake,3T3-L1 [12],97%
same,Hypoglycemic activity,Mus musculus [3],<0%
same,Hypoglycemic activity,Mus musculus [9],93%
same,ED50,Rattus norvegicus [10]; [28],5 mg/kg
same,Basal uptake,3T3-L1 [14],97%
CC(C)c1ccc(OC(C)(Cc2ccc3c(c2)CCC3)C(=O)[O-])cc1.[Na+] (stereo unspecified),Hypoglycemic activity,Mus musculus [3],121%
same,Hypoglycemic activity,Mus musculus [4],34%
same,Hypoglycemic activity,Mus musculus [8],83%
same,Hypoglycemic activity,Mus musculus [9],126%
same,ED50,Rattus norvegicus [10]; [28],0.5 mg/kg
O=C(O)C(Cc1ccc(Cl)cc1)Oc1ccccc1 (stereo unspecified),Basal uptake,L6,86%
same,Basal uptake,3T3-L1 [5],100%
same,ED50,Rattus norvegicus [10]; [28],> 25 mg/kg
same,Hypoglycemic activity,Mus musculus [25],<0%
COc1ccc(OC(Cc2ccc(Cl)cc2)C(=O)O)cc1 (stereo unspecified),Basal uptake,L6,98%
same,ED50,Rattus norvegicus [10]; [28],> 25 mg/kg
same,Hypoglycemic activity,Mus musculus [25],23%
CC(C)(C)c1ccc(OC(Cc2ccc(Cl)cc2)C(=O)O)cc1 (stereo unspecified),Basal uptake,3T3-L1 [2],87%
same,Basal uptake,L6,84%
same,Basal uptake,3T3-L1 [5],<100%
same,ED50,Rattus norvegicus [10]; [28],25 mg/kg
same,Basal uptake,3T3-L1 [14],92%
same,Hypoglycemic activity,Mus musculus [25],53%
CC(C)c1ccc(OC(C)(Cc2ccc(Cl)cc2)C(=O)O)cc1 (stereo in doubt; 27),Hypoglycemic activity,Mus musculus [3]; 5 mg/kg,65%
same,Hypoglycemic activity,Mus musculus [8]; 1 mg/kg,36%
same,Hypoglycemic activity,Mus musculus [26],79%
same,Basal uptake,3T3-L1 [27],214%
same,ED50,Rattus norvegicus [10],1 mg/kg
CC(C)c1ccc(OC(C)(Cc2ccc(Cl)cc2)C(=O)O)cc1 (stereo in doubt; 28),Hypoglycemic activity,Mus musculus [3]; 5 mg/kg,100%
same,Hypoglycemic activity,Mus musculus [8]; 1 mg/kg,47%
same,Hypoglycemic activity,Mus musculus [26],88%
same,Basal uptake,3T3-L1 [27],229%
